# In patent publication US9738634B2, “Heterocyclic amide compound and herbicide” (SYNGENTA PARTICIPATIONS AG, priority 2013, dated 2017):
# How the values were obtained:
# Type in all cases: in vivo
# barnyard grass [1] = test: Test Example 1: weedkilling efficacy, preemergent weed treatment in the submerged state; A: barnyard grass; details: treatment dosage 252 g/ha
# Procedure, shortened: (§1)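 Visual scores against set criteria were taken 3 weeks after treatment. Compounds, as diluted emulsions at specified g/ha, went onto the water surface of 4 cm-flooded alluvial soil pots on the day weeds were sown and 2.5-leaf rice was transplanted; greenhouse held 25–30 °C.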
# bulrush [2] = test: Test Example 1: weedkilling efficacy, preemergent weed treatment in the submerged state; B: bulrush; details: treatment dosage 252 g/ha
# Procedure, shortened: as §1
# oval-leafed pondweed [3] = test: Test Example 1: weedkilling efficacy, preemergent weed treatment in the submerged state; C: oval-leafed pondweed; details: treatment dosage 252 g/ha
# Procedure, shortened: as §1
# transplanted rice = test: Test Example 1: preemergent weed treatment in the submerged state, effect on crop; a: transplanted rice; details: treatment dosage 252 g/ha
# Procedure, shortened: as §1
# barnyard grass [4] = test: Test Example 2: weedkilling efficacy, growth period weed treatment in the submerged state; A: barnyard grass; details: treatment dosage 252 g/ha
# Procedure, shortened: (§2)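 Barnyard grass, bulrush and oval-leafed pondweed sown in alluvial soil under 4 cm flooding, greenhouse 25 to 30° C. At 1-2 leaf stage, water-diluted emulsion applied to the water surface at stated g/ha dosages; effects scored 3 weeks later.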
# bulrush [5] = test: Test Example 2: weedkilling efficacy, growth period weed treatment in the submerged state; B: bulrush; details: treatment dosage 252 g/ha
# Procedure, shortened: as §2
# oval-leafed pondweed [6] = test: Test Example 2: weedkilling efficacy, growth period weed treatment in the submerged state; C: oval-leafed pondweed; details: treatment dosage 252 g/ha
# Procedure, shortened: as §2
# crabgrass [7] = test: Test Example 3: weedkilling efficacy through soil treatment; D: crabgrass; details: treatment dosage 315 g/ha
# Procedure, shortened: (§3)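 Crop and weed responses were judged three weeks after a uniform surface spray of the water-diluted emulsion at the given g/ha rate. Seeds sat beneath about 1.5 cm of sterilized diluvial soil, and boxes stood in a greenhouse at 25 to 30° C.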
# green foxtail [8] = test: Test Example 3: weedkilling efficacy through soil treatment; E: green foxtail; details: treatment dosage 315 g/ha
# Procedure, shortened: as §3
# black-grass [9] = test: Test Example 3: weedkilling efficacy through soil treatment; H: black-grass; details: treatment dosage 315 g/ha
# Procedure, shortened: as §3
# Italian ryegrass [10] = test: Test Example 3: weedkilling efficacy through soil treatment; I: Italian ryegrass; details: treatment dosage 315 g/ha
# Procedure, shortened: as §3
# Indian mallow [11] = test: Test Example 3: weedkilling efficacy through soil treatment; K: Indian mallow; details: treatment dosage 315 g/ha
# Procedure, shortened: as §3
# redroot pigweed [12] = test: Test Example 3: weedkilling efficacy through soil treatment; L: redroot pigweed; details: treatment dosage 315 g/ha
# Procedure, shortened: as §3
# chickweed [13] = test: Test Example 3: weedkilling efficacy through soil treatment; N: chickweed; details: treatment dosage 315 g/ha
# Procedure, shortened: as §3
# birds-eye speedwell [14] = test: Test Example 3: weedkilling efficacy through soil treatment; p: birds-eye speedwell; details: treatment dosage 315 g/ha
# Procedure, shortened: as §3
# directly sown rice [15] = test: Test Example 3: soil treatment, effect on crop; b: directly sown rice; details: treatment dosage 315 g/ha
# Procedure, shortened: as §3
# corn [16] = test: Test Example 3: soil treatment, effect on crop; c: corn; details: treatment dosage 315 g/ha
# Procedure, shortened: as §3
# soybean [17] = test: Test Example 3: soil treatment, effect on crop; d: soybean; details: treatment dosage 315 g/ha
# Procedure, shortened: as §3
# wheat [18] = test: Test Example 3: soil treatment, effect on crop; e: wheat; details: treatment dosage 315 g/ha
# Procedure, shortened: as §3
# beet [19] = test: Test Example 3: soil treatment, effect on crop; f: beet; details: treatment dosage 315 g/ha
# Procedure, shortened: as §3
# crabgrass [20] = test: Test Example 4: weedkilling efficacy by foliar treatment; D: crabgrass; details: treatment dosage 315 g/ha
# Description: (§4) Testing of Weedkilling Efficacy by Foliar Treatment
# (§5) Sterilized diluvial soil was introduced into 21 cm long, 13 cm wide, 7 cm deep plastic boxes, and seeds of crabgrass, green foxtail, barnyard grass, wild oat, black-grass, Italian ryegrass, common wind-grass, Indian mallow, redroot pigweed, fig-leafed goosefoot, chickweed, catchweed, birds-eye speedwell, corn, soybean, rice, wheat, beet and rapeseed were each spot-sown, and covered with about 1.5 cm of soil, then the plants were grown in a greenhouse at 25 to 30° C.
# (§6) After they had grown for 14 days, emulsions of compounds of the present invention prepared according to compounding example 2 were diluted with water to give the specified dosages, and applied uniformly onto the stem and leaf parts with a small sprayer. 3 weeks after the pesticide treatment the effect on each type of plant was investigated on the basis of the assessment criteria of test example 1.
# (§7) A: barnyard grass, B: bulrush, C: oval-leafed pondweed, D: crabgrass, E: green foxtail, F: barnyard grass, G: wild oat, H: black-grass, I: Italian ryegrass, J: common wind-grass, K: Indian mallow, L: redroot pigweed, M: fig-leafed goosefoot, N: chickweed, O: catchweed, p: birds-eye speedwell, a: transplanted rice, b: directly sown rice, c: corn, d: soybean, e: wheat, f: beet, g: rapeseed
# (§8) Further, pesticide dosage (g/ha) indicates the concentration regulated such that treatment was with only the stated number of grams (g), when calculated per hectare (ha).
# green foxtail [21] = test: Test Example 4: weedkilling efficacy by foliar treatment; E: green foxtail; details: treatment dosage 315 g/ha
# Description: as §4, §5, §6, §7, §8
# black-grass [22] = test: Test Example 4: weedkilling efficacy by foliar treatment; H: black-grass; details: treatment dosage 315 g/ha
# Description: as §4, §5, §6, §7, §8
# Italian ryegrass [23] = test: Test Example 4: weedkilling efficacy by foliar treatment; I: Italian ryegrass; details: treatment dosage 315 g/ha
# Description: as §4, §5, §6, §7, §8
# Indian mallow [24] = test: Test Example 4: weedkilling efficacy by foliar treatment; K: Indian mallow; details: treatment dosage 315 g/ha
# Description: as §4, §5, §6, §7, §8
# redroot pigweed [25] = test: Test Example 4: weedkilling efficacy by foliar treatment; L: redroot pigweed; details: treatment dosage 315 g/ha
# Description: as §4, §5, §6, §7, §8
# fig-leafed goosefoot = test: Test Example 4: weedkilling efficacy by foliar treatment; M: fig-leafed goosefoot; details: treatment dosage 315 g/ha
# Description: as §4, §5, §6, §7, §8
# chickweed [26] = test: Test Example 4: weedkilling efficacy by foliar treatment; N: chickweed; details: treatment dosage 315 g/ha
# Description: as §4, §5, §6, §7, §8
# catchweed = test: Test Example 4: weedkilling efficacy by foliar treatment; O: catchweed; details: treatment dosage 315 g/ha
# Description: as §4, §5, §6, §7, §8
# birds-eye speedwell [27] = test: Test Example 4: weedkilling efficacy by foliar treatment; p: birds-eye speedwell; details: treatment dosage 315 g/ha
# Description: as §4, §5, §6, §7, §8
# directly sown rice [28] = test: Test Example 4: foliar treatment, effect on crop; b: directly sown rice; details: treatment dosage 315 g/ha
# Description: as §4, §5, §6, §7, §8
# corn [29] = test: Test Example 4: foliar treatment, effect on crop; c: corn; details: treatment dosage 315 g/ha
# Description: as §4, §5, §6, §7, §8
# soybean [30] = test: Test Example 4: foliar treatment, effect on crop; d: soybean; details: treatment dosage 315 g/ha
# Description: as §4, §5, §6, §7, §8
# wheat [31] = test: Test Example 4: foliar treatment, effect on crop; e: wheat; details: treatment dosage 315 g/ha
# Description: as §4, §5, §6, §7, §8
# beet [32] = test: Test Example 4: foliar treatment, effect on crop; f: beet; details: treatment dosage 315 g/ha
# Description: as §4, §5, §6, §7, §8
compound,measurement,setting,value
COc1nsc(NC(=O)C(C)(C)N2COC(C)=C(c3ccccc3)C2=O)n1 [B-1-15],A (barnyard grass) weedkilling efficacy grade,barnyard grass [1],"5 (weed kill ratio 90% or more, (practically complete withering))"
same,B (bulrush) weedkilling efficacy grade,bulrush [2],"5 (weed kill ratio 90% or more, (practically complete withering))"
same,C (oval-leafed pondweed) weedkilling efficacy grade,oval-leafed pondweed [3],"5 (weed kill ratio 90% or more, (practically complete withering))"
same,a (transplanted rice) effect on crop grade,transplanted rice,0 (weed kill ratio 5% or less (practically no effect))
same,A (barnyard grass) weedkilling efficacy grade,barnyard grass [4],"4 (weed kill ratio 70% or more, less than 90%)"
same,B (bulrush) weedkilling efficacy grade,bulrush [5],"5 (weed kill ratio 90% or more, (practically complete withering))"
same,C (oval-leafed pondweed) weedkilling efficacy grade,oval-leafed pondweed [6],"5 (weed kill ratio 90% or more, (practically complete withering))"
same,D (crabgrass) weedkilling efficacy grade,crabgrass [7],"5 (weed kill ratio 90% or more, (practically complete withering))"
same,E (green foxtail) weedkilling efficacy grade,green foxtail [8],"5 (weed kill ratio 90% or more, (practically complete withering))"
same,H (black-grass) weedkilling efficacy grade,black-grass [9],"5 (weed kill ratio 90% or more, (practically complete withering))"
same,I (Italian ryegrass) weedkilling efficacy grade,Italian ryegrass [10],"5 (weed kill ratio 90% or more, (practically complete withering))"
same,K (Indian mallow) weedkilling efficacy grade,Indian mallow [11],"4 (weed kill ratio 70% or more, less than 90%)"
same,L (redroot pigweed) weedkilling efficacy grade,redroot pigweed [12],"5 (weed kill ratio 90% or more, (practically complete withering))"
same,N (chickweed) weedkilling efficacy grade,chickweed [13],"5 (weed kill ratio 90% or more, (practically complete withering))"
same,P (birds-eye speedwell) weedkilling efficacy grade,birds-eye speedwell [14],"5 (weed kill ratio 90% or more, (practically complete withering))"
same,b (directly sown rice) effect on crop grade,directly sown rice [15],"5 (weed kill ratio 90% or more, (practically complete withering))"
same,c (corn) effect on crop grade,corn [16],0 (weed kill ratio 5% or less (practically no effect))
same,d (soybean) effect on crop grade,soybean [17],0 (weed kill ratio 5% or less (practically no effect))
same,e (wheat) effect on crop grade,wheat [18],"4 (weed kill ratio 70% or more, less than 90%)"
same,f (beet) effect on crop grade,beet [19],"4 (weed kill ratio 70% or more, less than 90%)"
same,D (crabgrass) weedkilling efficacy grade,crabgrass [20],"5 (weed kill ratio 90% or more, (practically complete withering))"
same,E (green foxtail) weedkilling efficacy grade,green foxtail [21],"5 (weed kill ratio 90% or more, (practically complete withering))"
same,H (black-grass) weedkilling efficacy grade,black-grass [22],"5 (weed kill ratio 90% or more, (practically complete withering))"
same,I (Italian ryegrass) weedkilling efficacy grade,Italian ryegrass [23],"4 (weed kill ratio 70% or more, less than 90%)"
same,K (Indian mallow) weedkilling efficacy grade,Indian mallow [24],"5 (weed kill ratio 90% or more, (practically complete withering))"
same,L (redroot pigweed) weedkilling efficacy grade,redroot pigweed [25],"5 (weed kill ratio 90% or more, (practically complete withering))"
same,M (fig-leafed goosefoot) weedkilling efficacy grade,fig-leafed goosefoot,"3 (weed kill ratio 40% or more, less than 70%)"
same,N (chickweed) weedkilling efficacy grade,chickweed [26],"4 (weed kill ratio 70% or more, less than 90%)"
same,O (catchweed) weedkilling efficacy grade,catchweed,"4 (weed kill ratio 70% or more, less than 90%)"
same,P (birds-eye speedwell) weedkilling efficacy grade,birds-eye speedwell [27],"4 (weed kill ratio 70% or more, less than 90%)"
same,b (directly sown rice) effect on crop grade,directly sown rice [28],"4 (weed kill ratio 70% or more, less than 90%)"
same,c (corn) effect on crop grade,corn [29],"4 (weed kill ratio 70% or more, less than 90%)"
same,d (soybean) effect on crop grade,soybean [30],"4 (weed kill ratio 70% or more, less than 90%)"
same,e (wheat) effect on crop grade,wheat [31],"3 (weed kill ratio 40% or more, less than 70%)"
same,f (beet) effect on crop grade,beet [32],"4 (weed kill ratio 70% or more, less than 90%)"
